Data from patent US20240376163A1, “PEPTIDE FOR INHIBITING CALCINEURIN AND USE THEREOF” (Seoul National University R&DB Foundation, priority 2023, published 2024).

Tested on: Jurkat T cells
Assay: mRNA sequencing of activated Jurkat T cells
Format: cell-based, human
Settings: P + I

C=CC[C@@H]1/C=C(\C)C[C@H](C)C[C@H](OC)[C@H]2O[C@@](O)(C(=O)C(=O)N3CCCC[C@H]3C(=O)O[C@H](/C(C)=C/[C@@H]3CC[C@@H](O)[C@H](OC)C3)[C@H](C)[C@@H](O)CC1=O)[C@H](C)C[C@@H]2OC [FK506, Tacrolimus, reference compound]
MSMO1 FPKM (Jurkat T cells): 59.655 FPKM | MT2A FPKM (Jurkat T cells): 369.658 FPKM | MXD3 FPKM (Jurkat T cells): 17.861 FPKM | MYB FPKM (Jurkat T cells): 58.524 FPKM | MZB1 FPKM (Jurkat T cells): 22.015 FPKM | N4BP3 FPKM (Jurkat T cells): 1.739 FPKM | NAA16 FPKM (Jurkat T cells): 3.527 FPKM | NCKAP1 FPKM (Jurkat T cells): 8.582 FPKM | NCOA3 FPKM (Jurkat T cells): 9.949 FPKM | NDRG1 FPKM (Jurkat T cells): 126.361 FPKM | NDRG2 FPKM (Jurkat T cells): 2.881 FPKM | NEDD9 FPKM (Jurkat T cells): 3.748 FPKM | NFATC1 FPKM (Jurkat T cells): 3.793 FPKM | NFKB1 FPKM (Jurkat T cells): 34.242 FPKM | NFKB2 FPKM (Jurkat T cells): 49.22 FPKM | NLRC3 FPKM (Jurkat T cells): 7.789 FPKM | NME4 FPKM (Jurkat T cells): 16.395 FPKM | NOTCH2 FPKM (Jurkat T cells): 10.308 FPKM | NOTCH3 FPKM (Jurkat T cells): 0.902 FPKM | NPDC1 FPKM (Jurkat T cells): 4.328 FPKM | NR4A3 FPKM (Jurkat T cells): 1.927 FPKM | NREP FPKM (Jurkat T cells): 9.925 FPKM | NRP1 FPKM (Jurkat T cells): 14.572 FPKM | NSG1 FPKM (Jurkat T cells): 4.302 FPKM | NSMF FPKM (Jurkat T cells): 3.164 FPKM | NT5E FPKM (Jurkat T cells): 8.91 FPKM | NTRK1 FPKM (Jurkat T cells): 0.836 FPKM | ODC1 FPKM (Jurkat T cells): 245.466 FPKM | OPTN FPKM (Jurkat T cells): 12.958 FPKM | OSBPL5 FPKM (Jurkat T cells): 3.354 FPKM | PAM FPKM (Jurkat T cells): 1.483 FPKM | PCNA-AS1 FPKM (Jurkat T cells): 70.937 FPKM | PDCD1 FPKM (Jurkat T cells): 1.377 FPKM | PDGFA FPKM (Jurkat T cells): 3.25 FPKM | PDGFC FPKM (Jurkat T cells): 2.292 FPKM | PDIA6 FPKM (Jurkat T cells): 123.669 FPKM | PDLIM1 FPKM (Jurkat T cells): 6.874 FPKM | PELI2 FPKM (Jurkat T cells): 11.262 FPKM | PEX5L FPKM (Jurkat T cells): 1.428 FPKM | PHACTR2 FPKM (Jurkat T cells): 2.927 FPKM | PHLDB2 FPKM (Jurkat T cells): 3.898 FPKM | PI16 FPKM (Jurkat T cells): 17.07 FPKM | PKIG FPKM (Jurkat T cells): 12.411 FPKM | PKM FPKM (Jurkat T cells): 1736.037 FPKM | PLAC8 FPKM (Jurkat T cells): 3.158 FPKM | PLEC FPKM (Jurkat T cells): 21.747 FPKM | PLS3 FPKM (Jurkat T cells): 0.052 FPKM | POTEE FPKM (Jurkat T cells): 1.42 FPKM | POU2AF1 FPKM (Jurkat T cells): 2.274 FPKM | POU2F2 FPKM (Jurkat T cells): 3.317 FPKM | PPIF FPKM (Jurkat T cells): 50.291 FPKM | PPP1R15A FPKM (Jurkat T cells): 77.478 FPKM | PPP1R16B FPKM (Jurkat T cells): 29.659 FPKM | PRDM8 FPKM (Jurkat T cells): 39.913 FPKM | PRNP FPKM (Jurkat T cells): 39.685 FPKM | PSMB10 FPKM (Jurkat T cells): 104.49 FPKM | PTPN6 FPKM (Jurkat T cells): 20.906 FPKM | PTPN7 FPKM (Jurkat T cells): 93.59 FPKM | PXYLP1 FPKM (Jurkat T cells): 5.01 FPKM | QPRT FPKM (Jurkat T cells): 13.402 FPKM | RAB37 FPKM (Jurkat T cells): 2.455 FPKM | RASGRP1 FPKM (Jurkat T cells): 4.464 FPKM | RASGRP2 FPKM (Jurkat T cells): 3.002 FPKM | RB1 FPKM (Jurkat T cells): 62.321 FPKM | RCBTB2 FPKM (Jurkat T cells): 13.008 FPKM | RCOR2 FPKM (Jurkat T cells): 1.361 FPKM | RGS2 FPKM (Jurkat T cells): 3.365 FPKM | RHOU FPKM (Jurkat T cells): 1.51 FPKM | RNF19A FPKM (Jurkat T cells): 12.334 FPKM | RNF212 FPKM (Jurkat T cells): 1.059 FPKM | RORA FPKM (Jurkat T cells): 2.502 FPKM | RRAS2 FPKM (Jurkat T cells): 18.257 FPKM | RTN4R FPKM (Jurkat T cells): 2.449 FPKM | RUNX1 FPKM (Jurkat T cells): 37.963 FPKM | RUNX3 FPKM (Jurkat T cells): 23.624 FPKM | SASH3 FPKM (Jurkat T cells): 59.349 FPKM | SBK1 FPKM (Jurkat T cells): 9.239 FPKM | SCG2 FPKM (Jurkat T cells): 159.394 FPKM | SCHIP1 FPKM (Jurkat T cells): 1.535 FPKM | SEPT3 FPKM (Jurkat T cells): 1.089 FPKM | SEPT6 FPKM (Jurkat T cells): 55.091 FPKM | SEPT9 FPKM (Jurkat T cells): 55.265 FPKM | SERINC5 FPKM (Jurkat T cells): 3.184 FPKM | SERPINB8 FPKM (Jurkat T cells): 23.788 FPKM | SERPINE2 FPKM (Jurkat T cells): 3.936 FPKM | SERTAD1 FPKM (Jurkat T cells): 16.162 FPKM | SGK1 FPKM (Jurkat T cells): 76.683 FPKM | SH2D1A FPKM (Jurkat T cells): 23.649 FPKM | SH2D2A FPKM (Jurkat T cells): 20.658 FPKM | SH3TC1 FPKM (Jurkat T cells): 1.562 FPKM | SIVA1 FPKM (Jurkat T cells): 50.269 FPKM | SLAMF1 FPKM (Jurkat T cells): 0.217 FPKM | SLAMF7 FPKM (Jurkat T cells): 3.121 FPKM | SLAMF8 FPKM (Jurkat T cells): 5.282 FPKM | SLC22A1 FPKM (Jurkat T cells): 7.005 FPKM | SLC27A2 FPKM (Jurkat T cells): 41.996 FPKM | SLC29A4 FPKM (Jurkat T cells): 1.68 FPKM | SLC35E4 FPKM (Jurkat T cells): 0.952 FPKM | SLC35G2 FPKM (Jurkat T cells): 10.118 FPKM | SMAD1 FPKM (Jurkat T cells): 4.873 FPKM | SMOX FPKM (Jurkat T cells): 14.9 FPKM | SMPD1 FPKM (Jurkat T cells): 20.599 FPKM | SORBS1 FPKM (Jurkat T cells): 0.4 FPKM | SOX4 FPKM (Jurkat T cells): 76.17 FPKM | SPINT1 FPKM (Jurkat T cells): 1.948 FPKM | SPRY1 FPKM (Jurkat T cells): 4.074 FPKM | SPRY4 FPKM (Jurkat T cells): 9.613 FPKM | SPSB1 FPKM (Jurkat T cells): 10.137 FPKM | SPTBN2 FPKM (Jurkat T cells): 2.135 FPKM | SRGN FPKM (Jurkat T cells): 10.812 FPKM | SSBP2 FPKM (Jurkat T cells): 7.127 FPKM | ST3GAL6 FPKM (Jurkat T cells): 4.018 FPKM | STAT2 FPKM (Jurkat T cells): 37.805 FPKM | STAT3 FPKM (Jurkat T cells): 83.385 FPKM | STAU2 FPKM (Jurkat T cells): 7.124 FPKM | STMN3 FPKM (Jurkat T cells): 10.423 FPKM | STX1A FPKM (Jurkat T cells): 16.1 FPKM | SYK FPKM (Jurkat T cells): 7.044 FPKM | TAGAP FPKM (Jurkat T cells): 4.352 FPKM | TAL1 FPKM (Jurkat T cells): 22.337 FPKM | TAP2 FPKM (Jurkat T cells): 5.187 FPKM | TAPBPL FPKM (Jurkat T cells): 19.59 FPKM | TBC1D4 FPKM (Jurkat T cells): 12.549 FPKM | TBC1D5 FPKM (Jurkat T cells): 4.088 FPKM | TBKBP1 FPKM (Jurkat T cells): 16.894 FPKM | TCF3 FPKM (Jurkat T cells): 39.165 FPKM | TCF7 FPKM (Jurkat T cells): 13.065 FPKM | TCF12 FPKM (Jurkat T cells): 34.798 FPKM | TDRD9 FPKM (Jurkat T cells): 1.245 FPKM | TGFBR2 FPKM (Jurkat T cells): 36.615 FPKM | THEM6 FPKM (Jurkat T cells): 3.232 FPKM | THEMIS FPKM (Jurkat T cells): 33.406 FPKM | TIAF1 FPKM (Jurkat T cells): 12.479 FPKM | TIAM1 FPKM (Jurkat T cells): 8.466 FPKM | TIAM2 FPKM (Jurkat T cells): 0.27 FPKM | TLE1 FPKM (Jurkat T cells): 1.864 FPKM | TMCC3 FPKM (Jurkat T cells): 4.527 FPKM | TNFAIP3 FPKM (Jurkat T cells): 25.168 FPKM | TNFRSF10B FPKM (Jurkat T cells): 25.474 FPKM | TNFSF10 FPKM (Jurkat T cells): 24.883 FPKM | TNFSF14 FPKM (Jurkat T cells): 1.023 FPKM | TPM4 FPKM (Jurkat T cells): 202.311 FPKM | TPST2 FPKM (Jurkat T cells): 21.077 FPKM | TRAF3IP3 FPKM (Jurkat T cells): 15.012 FPKM | TRIB1 FPKM (Jurkat T cells): 5.422 FPKM | TRIM21 FPKM (Jurkat T cells): 45.856 FPKM | TTLL1 FPKM (Jurkat T cells): 3.69 FPKM | UBE2L6 FPKM (Jurkat T cells): 164.565 FPKM | UHRF1 FPKM (Jurkat T cells): 8.288 FPKM | VAMP1 FPKM (Jurkat T cells): 14.793 FPKM | VAT1 FPKM (Jurkat T cells): 44.696 FPKM | VAV1 FPKM (Jurkat T cells): 30.218 FPKM | WARS FPKM (Jurkat T cells): 105.541 FPKM | WDR76 FPKM (Jurkat T cells): 8.368 FPKM | XCL1 FPKM (Jurkat T cells): 0 FPKM | XCL2 FPKM (Jurkat T cells): 0 FPKM | XIRP1 FPKM (Jurkat T cells): 6.348 FPKM | XRCC6BP1 FPKM (Jurkat T cells): 9.744 FPKM | YPEL1 FPKM (Jurkat T cells): 5.628 FPKM | ZFP36L1 FPKM (Jurkat T cells): 153.648 FPKM | ZFP36L2 FPKM (Jurkat T cells): 13.343 FPKM | ZNF280D FPKM (Jurkat T cells): 2.345 FPKM | ZNF367 FPKM (Jurkat T cells): 2.354 FPKM | ZNF480 FPKM (Jurkat T cells): 7.174 FPKM | ZNF521 FPKM (Jurkat T cells): 2.011 FPKM | ZNF652 FPKM (Jurkat T cells): 2.631 FPKM | ZNF704 FPKM (Jurkat T cells): 0.014 FPKM | ZNF827 FPKM (Jurkat T cells): 1.521 FPKM | ZNFX1 FPKM (Jurkat T cells): 16.708 FPKM | ZP4 FPKM (Jurkat T cells): 0.462 FPKM | ZYX FPKM (Jurkat T cells): 127.794 FPKM | ADORA2A FPKM: 0.998 FPKM | AGK FPKM: 14.029 FPKM | ARHGEF3 FPKM: 8.637 FPKM | ASAP1 FPKM: 7.765 FPKM | ATG14 FPKM: 7.863 FPKM | ATP6V1B2 FPKM: 50.672 FPKM | BCL2L1 FPKM: 39.402 FPKM | C3 FPKM: 0.489 FPKM | C10orf54 FPKM: 0.382 FPKM | CABP1 FPKM: 1.201 FPKM | CCDC64 FPKM: 10.044 FPKM | CCL1 FPKM: 0 FPKM | CCL3 FPKM: 0 FPKM | CCL3L1 FPKM: 0 FPKM | CCL3L3 FPKM: 0 FPKM | CCL4 FPKM: 0 FPKM | CCL4L1 FPKM: 0.087 FPKM | CCL4L2 FPKM: 0.087 FPKM | CCL20 FPKM: 0 FPKM | CCND2 FPKM: 0.558 FPKM | CD27-AS1 FPKM: 5.11 FPKM | CD27 FPKM: 3.098 FPKM | CD55 FPKM: 6.015 FPKM | CD70 FPKM: 3.005 FPKM | CD97 FPKM: 19.394 FPKM | CD200 FPKM: 0 FPKM | COL27A1 FPKM: 4.463 FPKM | CREB5 FPKM: 0.577 FPKM
